Laboratory results published in patent US8952024B2, “Herbicidal pyrimidone derivatives” (E I du Pont de Nemours and Company, priority 2009, dated 2015).

Legend:
Test in all cases: Test B pre-/postemergence plant response
Format in all cases: in vivo
kochia (Kochia scoparia) = system: kochia (Kochia scoparia)
Outline: (§1)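 Greenhouse herbicide screen. Pre- and postemergence (1- to 4-leaf) spray of compound in solvent/surfactant mixture; loam–sand soil for pre, peat/vermiculite medium for post. Visual control rating 0–100 at 13 to 15 days after treatment.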

soybean (Glycine max) = system: soybean (Glycine max)
Outline: as §1

[1] = system: green foxtail (Setaria viridis)
Outline: as §1

[2] = system: downy bromegrass (Bromus tectorum)
Outline: as §1

[3] = system: ragweed (common ragweed, Ambrosia elatior)
Outline: as §1

[4] = system: large crabgrass (Digitaria sanguinalis)
Outline: as §1

[5] = system: bermudagrass (Cynodon dactylon)
Outline: as §1

[6] = system: blackgrass (Alopecurus myosuroides)
Outline: as §1

[7] = system: pigweed (Amaranthus retroflexus)
Outline: as §1

wild oat (Avena fatua) = system: wild oat (Avena fatua)
Outline: as §1

[8] = system: yellow nutsedge (Cyperus esculentus)
Outline: as §1

[9] = system: lambsquarters (Chenopodium album)
Outline: as §1

[10] = system: velvetleaf (Abutilon theophrasti)
Outline: as §1

[11] = system: cocklebur (Xanthium strumarium); details: Preemergence; for Plant response rating, Cocklebur: scale 0 to 100, 0 no effect, 100 complete control
Outline: as §1

[12] = system: Italian ryegrass (Lolium multiflorum)
Outline: as §1

corn (Zea mays) = system: corn (Zea mays)
Outline: as §1

[13] = system: Surinam grass (Brachiaria decumbens)
Outline: as §1

[14] = Postemergence, 31 g ai/ha, 0 to 100 scale (0 no effect, 100 complete control)
[15] = Postemergence, 125 g ai/ha, scale 0 (no effect) to 100 (complete control), 13 to 15 days
[16] = Postemergence, 250 g ai/ha, scale 0 to 100 (0 no effect, 100 complete control), 13 to 15 days
[17] = Postemergence, 62 g ai/ha, scale 0 to 100 (0 no effect, 100 complete control)
[18] = Preemergence, 31 g ai/ha, scale 0 to 100 (0 no effect, 100 complete control)
[19] = Preemergence, 62 g ai/ha, scale 0 to 100, 0 no effect, 100 complete control
[20] = Preemergence, 125 g ai/ha, scale 0 to 100, 0 no effect, 100 complete control
[21] = Preemergence, 250 g ai/ha, 0 to 100 scale

COCCCn1c(-c2cc(F)cc(F)c2)ncc(C(=O)C2=C(O)C3CCC(C3)C2=O)c1=O (centres unmarked) [Compound 244]
Plant response rating, Kochia (kochia (Kochia scoparia); [14]): 85 | Plant response rating, Kochia (kochia (Kochia scoparia); [15]): 100 | Plant response rating, Kochia (kochia (Kochia scoparia); [16]): 100 | Plant response rating, Kochia (kochia (Kochia scoparia); [17]): 90 | Plant response rating, Kochia (kochia (Kochia scoparia); [18]): 85 | Plant response rating, Kochia (kochia (Kochia scoparia); [19]): 90 | Plant response rating, Kochia (kochia (Kochia scoparia); [20]): 95 | Kochia plant response rating (kochia (Kochia scoparia); [21]): 100 | Plant response rating, Soybean (soybean (Glycine max); [14]): 85 | Plant response rating, Soybean (soybean (Glycine max); [15]): 100 | Plant response rating, Soybean (soybean (Glycine max); [16]): 100 | Plant response rating, Soybean (soybean (Glycine max); [17]): 100 | Plant response rating, Soybean (soybean (Glycine max); [18]): 70 | Plant response rating, Soybean (soybean (Glycine max); [19]): 80 | Plant response rating, Soybean (soybean (Glycine max); [20]): 90 | Soybean plant response rating (soybean (Glycine max); [21]): 95 | Plant response rating, Foxtail, Green [1, 14]: 85 | Plant response rating, Foxtail, Green [1, 15]: 98 | Plant response rating, Foxtail, Green [1, 16]: 100 | Plant response rating, Foxtail, Green [1, 17]: 98 | Plant response rating, Foxtail, Green [1, 18]: 0 | Plant response rating, Foxtail, Green [1, 19]: 45 | Plant response rating, Foxtail, Green [1, 20]: 90 | Foxtail, Green plant response rating [1, 21]: 90 | Plant response rating, Bromegrass, Downy [2, 14]: 40 | Plant response rating, Bromegrass, Downy [2, 15]: 75 | Plant response rating, Bromegrass, Downy [2, 16]: 80 | Plant response rating, Bromegrass, Downy [2, 17]: 50 | Plant response rating, Bromegrass, Downy [2, 18]: 0 | Plant response rating, Bromegrass, Downy [2, 19]: 0 | Plant response rating, Bromegrass, Downy [2, 20]: 5 | Bromegrass, Downy plant response rating [2, 21]: 30 | Plant response rating, Ragweed [3, 14]: 98 | Plant response rating, Ragweed [3, 15]: 98 | Plant response rating, Ragweed [3, 16]: 100 | Plant response rating, Ragweed [3, 17]: 98 | Plant response rating, Ragweed [3, 18]: 70 | Plant response rating, Ragweed [3, 19]: 95 | Plant response rating, Ragweed [3, 20]: 100 | Ragweed plant response rating [3, 21]: 100 | Plant response rating, Crabgrass, Large [4, 14]: 80 | Plant response rating, Crabgrass, Large [4, 15]: 100 | Plant response rating, Crabgrass, Large [4, 16]: 100 | Plant response rating, Crabgrass, Large [4, 17]: 100 | Plant response rating, Crabgrass, Large [4, 18]: 98 | Plant response rating, Crabgrass, Large [4, 19]: 100 | Plant response rating, Crabgrass, Large [4, 20]: 100 | Crabgrass, Large plant response rating [4, 21]: 100 | Plant response rating, Bermudagrass [5, 14]: 80 | Plant response rating, Bermudagrass [5, 15]: 100 | Plant response rating, Bermudagrass [5, 16]: 100 | Plant response rating, Bermudagrass [5, 17]: 100 | Plant response rating, Bermudagrass [5, 18]: 100 | Plant response rating, Bermudagrass [5, 19]: 100 | Plant response rating, Bermudagrass [5, 20]: 100 | Bermudagrass plant response rating ([5]; Preemergence, 250 g ai/ha, 0 to 100 scale, 0 no effect, 100 complete control): 100 | Plant response rating, Blackgrass [6, 14]: 50 | Plant response rating, Blackgrass [6, 15]: 65 | Plant response rating, Blackgrass [6, 16]: 85 | Plant response rating, Blackgrass [6, 17]: 60 | Plant response rating, Blackgrass [6, 18]: 35 | Plant response rating, Blackgrass [6, 19]: 35 | Plant response rating, Blackgrass [6, 20]: 60 | Blackgrass plant response rating [6, 21]: 70 | Plant response rating, Pigweed [7, 14]: 95 | Plant response rating, Pigweed [7, 15]: 100 | Plant response rating, Pigweed [7, 16]: 100 | Plant response rating, Pigweed [7, 17]: 100 | Plant response rating, Pigweed [7, 18]: 100 | Plant response rating, Pigweed [7, 19]: 100 | Plant response rating, Pigweed [7, 20]: 100 | Pigweed plant response rating [7, 21]: 100 | Plant response rating, Oat, Wild (wild oat (Avena fatua); [14]): 50 | Plant response rating, Oat, Wild (wild oat (Avena fatua); [15]): 95 | Plant response rating, Oat, Wild (wild oat (Avena fatua); [16]): 98 | Plant response rating, Oat, Wild (wild oat (Avena fatua); [17]): 70 | Plant response rating, Oat, Wild (wild oat (Avena fatua); [18]): 0 | Plant response rating, Oat, Wild (wild oat (Avena fatua); [19]): 5 | Plant response rating, Oat, Wild (wild oat (Avena fatua); [20]): 10 | Oat, Wild plant response rating (wild oat (Avena fatua); [21]): 40 | Plant response rating, Nutsedge, Yellow [8, 14]: 45 | Plant response rating, Nutsedge, Yellow [8, 15]: 65 | Plant response rating, Nutsedge, Yellow [8, 16]: 75 | Plant response rating, Nutsedge, Yellow [8, 17]: 50 | Plant response rating, Nutsedge, Yellow [8, 18]: 20 | Plant response rating, Nutsedge, Yellow [8, 19]: 60 | Plant response rating, Nutsedge, Yellow [8, 20]: 80 | Nutsedge, Yellow plant response rating [8, 21]: 95 | Plant response rating, Lambsquarters [9, 14]: 100 | Plant response rating, Lambsquarters [9, 15]: 100 | Plant response rating, Lambsquarters [9, 16]: 100 | Plant response rating, Lambsquarters [9, 17]: 100 | Plant response rating, Lambsquarters [9, 18]: 100 | Plant response rating, Lambsquarters [9, 19]: 100 | Plant response rating, Lambsquarters [9, 20]: 100 | Lambsquarters plant response rating [9, 21]: 100 | Plant response rating, Velvetleaf [10, 14]: 100 | Plant response rating, Velvetleaf [10, 15]: 100 | Plant response rating, Velvetleaf [10, 16]: 100 | Plant response rating, Velvetleaf [10, 17]: 100 | Plant response rating, Velvetleaf [10, 18]: 100 | Plant response rating, Velvetleaf [10, 19]: 100 | Plant response rating, Velvetleaf [10, 20]: 100 | Velvetleaf plant response rating [10, 21]: 100 | Plant response rating, Cocklebur ([11]; 62 g ai/ha): 90 | Plant response rating, Cocklebur ([11]; 125 g ai/ha): 100 | Cocklebur plant response rating ([11]; 250 g ai/ha, 0 to 100 scale): 100 | Plant response rating, Ryegrass, Italian [12, 14]: 35 | Plant response rating, Ryegrass, Italian [12, 15]: 80 | Plant response rating, Ryegrass, Italian [12, 16]: 95 | Plant response rating, Ryegrass, Italian [12, 17]: 60 | Plant response rating, Ryegrass, Italian [12, 18]: 0 | Plant response rating, Ryegrass, Italian [12, 19]: 0 | Plant response rating, Ryegrass, Italian [12, 20]: 5 | Ryegrass, Italian plant response rating [12, 21]: 45 | Plant response rating, Corn (corn (Zea mays); [14]): 85 | Plant response rating, Corn (corn (Zea mays); [15]): 95 | Plant response rating, Corn (corn (Zea mays); [16]): 100 | Plant response rating, Corn (corn (Zea mays); [17]): 90 | Plant response rating, Corn (corn (Zea mays); [18]): 5 | Plant response rating, Corn (corn (Zea mays); [19]): 25 | Plant response rating, Corn (corn (Zea mays); [20]): 60 | Corn plant response rating (corn (Zea mays); [21]): 85 | Plant response rating, Surinam Grass [13, 14]: 90 | Plant response rating, Surinam Grass [13, 15]: 100 | Plant response rating, Surinam Grass [13, 16]: 100 | Plant response rating, Surinam Grass [13, 17]: 95 | Plant response rating, Surinam Grass [13, 18]: 75 | Plant response rating, Surinam Grass [13, 19]: 100 | Plant response rating, Surinam Grass [13, 20]: 100 | Surinam Grass plant response rating [13, 21]: 100
